Results: US12606561B2, “Substituted pyrazolo[1,5-a][1,3,5]triazines as CDK inhibitors” (QURIENT CO., LTD., priority 2018, dated 2026)
Read-outs that look alike come from different tables or passages of the source.

Key:
CDK1/Cyclin B = molecular target: T1, CDK1/Cyclin B (Homo sapiens, UniProt P06493); assay: Enzymatic assay for CDK1 (LANCE Ultra kinase assay, FRET based); type: biochemical; conditions: ATP at Km; read-out: CDK1 enzymatic activity IC50
T1 construct: purchased Invitrogen PR4768C
How it was run: (§1)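 Kinase activity of each purified CDK/cyclin complex was followed in a FRET format where a Europium anti-phospho-antibody recognises phosphorylated ULight-labeled peptide. ATP was held at its Km.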

CDK7/Cyclin H/MNAT1 = molecular target: T2, CDK7/Cyclin H/MNAT1 (Homo sapiens, UniProt P50613); assay: Enzymatic assay for CDK7 (LANCE Ultra kinase assay, FRET based); type: biochemical
T2 construct: purchased Invitrogen PR6749B
T2 sequence (P50613 whole entry): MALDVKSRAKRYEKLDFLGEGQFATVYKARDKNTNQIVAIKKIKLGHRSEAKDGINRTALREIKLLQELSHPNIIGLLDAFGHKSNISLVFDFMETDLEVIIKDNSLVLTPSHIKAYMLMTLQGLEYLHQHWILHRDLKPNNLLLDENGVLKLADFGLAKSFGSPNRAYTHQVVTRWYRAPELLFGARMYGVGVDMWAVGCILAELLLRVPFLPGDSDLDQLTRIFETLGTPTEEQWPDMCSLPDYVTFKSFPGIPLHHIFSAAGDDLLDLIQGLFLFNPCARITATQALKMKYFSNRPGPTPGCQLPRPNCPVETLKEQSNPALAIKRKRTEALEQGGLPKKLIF
T2 sequence (P51946 whole entry partner): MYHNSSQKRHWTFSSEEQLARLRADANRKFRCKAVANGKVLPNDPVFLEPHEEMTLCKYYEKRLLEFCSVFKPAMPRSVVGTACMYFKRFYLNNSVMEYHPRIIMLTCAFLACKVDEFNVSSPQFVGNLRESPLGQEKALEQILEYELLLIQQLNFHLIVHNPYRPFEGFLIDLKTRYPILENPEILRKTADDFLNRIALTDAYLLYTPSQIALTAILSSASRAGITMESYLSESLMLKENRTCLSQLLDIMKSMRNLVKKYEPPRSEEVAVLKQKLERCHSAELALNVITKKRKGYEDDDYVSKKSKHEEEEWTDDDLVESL
T2 sequence (P51948 whole entry partner): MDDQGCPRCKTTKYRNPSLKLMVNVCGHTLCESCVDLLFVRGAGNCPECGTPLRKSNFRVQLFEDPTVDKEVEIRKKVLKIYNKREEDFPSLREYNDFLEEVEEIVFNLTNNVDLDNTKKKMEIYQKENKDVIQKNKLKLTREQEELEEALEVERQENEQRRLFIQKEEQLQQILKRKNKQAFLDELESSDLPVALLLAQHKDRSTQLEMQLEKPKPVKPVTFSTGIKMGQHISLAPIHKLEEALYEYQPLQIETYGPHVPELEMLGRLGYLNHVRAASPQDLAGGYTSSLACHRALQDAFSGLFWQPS
How it was run: as §1

H460 = assay: Cellular H460 viability assay (CellTiter-Glo, 72 hours); type: cell-based; conditions: Homo sapiens, NCI-H460; H460 cells
Procedure: All cell lines were routinely tested for mycoplasma.
To effect of the CDK7 inhibitor to inhibit the growth of target cancer cells, viability assay were conducted a 72 hour time period. Briefly, the candidate cell line was plated in 96 well plate at the following density of cells respectively. 1×10^4 cells/well for MV4-11, 5×10^3 for H460 and OVCAR-3, and 1×10^3 for A2780. […] DMSO solvent without compound served as a control and final DMSO concentration lest than 0.1%. After 72 hours of incubation at 37° C., 5% CO2 incubator, cells were analyzed for the viability using the CellTiter-Glo Luminescent Cell Viability Assay (Promega, Cat #G7570). All viability assays were performed in duplicate and Luminescence was read using an Envision (Perkin Elmer, USA). Data was analyzed using XLfit software.

A2780 = A2780 viability assay (CellTiter-Glo, 72 hours); type: cell-based; conditions: Homo sapiens; A2780 cells
How it was run: (§2)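 Each line was plated at its own density (1×10^4, 5×10^3 and 1×10^3 cells/well for MV4-11, OVCAR-3 and A2780 respectively) in RPMI-1640 with 10% FBS. Treatment with compound, 0.0015 uM to 10 uM and DMSO under 0.1%, lasted 72 h. Surviving cells were quantified by CellTiter-Glo.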

OVCAR-3 = OVCAR-3 viability assay (CellTiter-Glo, 72 hours); type: cell-based; conditions: Homo sapiens; OVCAR-3 cells
How it was run: as §2

[1] = molecular target: T3, 28 CDKs family protein kinases (Homo sapiens, UniProt Q00535); assay: In vitro IC50 profile for CDKs family kinase (33PanQinase Activity Assay, ProQinase); type: biochemical; set-up: fused on or other part: GST or His tag; conditions: CDK5/p25NCK; read-out: CDK7 selectivity profile in CDKs family, IC50
Procedure: (§3) The IC50 profile of compound 11 was determined using 28 CDKs family protein kinases through ProQinase GmbH (Freiburg, Germany). All the protocol and materials had been provided by ProQinase GmbH. Briefly, in the process, 90 μl H2O were added to each well of a compound dilution plate. To minimize potential precipitation, the H2O was added to the plate only a few minutes before the transfer of the compound solutions into the assay plates. The plate was shaken thoroughly, resulting in a “compound dilution plate/10% DMSO”. The compound dilution plate(s) were discarded at the end of the working day. For the assays (see below), 5 μl solution from each well of the compound dilution plate were transferred into the assay plates. The final volume of the assay was 50 μl. […] Kinases from external vendors, Carna Biosciences Inc.; Invitrogen Corp.; and Millipore Corp., were expressed, purified and quality-controlled by virtue of the vendors readings. […] Incorporation of ^33Pi was determined with a microplate scintillation counter (Microbeta, Wallac). […] The residual activity (in %) for each well of a particular plate was calculated by using the following formula: Res. Activity (%)=100×[(cpm of compound−low control)/(high control−low control)].
Target sequence in this assay (Q00535 whole entry, the tested form may be a part): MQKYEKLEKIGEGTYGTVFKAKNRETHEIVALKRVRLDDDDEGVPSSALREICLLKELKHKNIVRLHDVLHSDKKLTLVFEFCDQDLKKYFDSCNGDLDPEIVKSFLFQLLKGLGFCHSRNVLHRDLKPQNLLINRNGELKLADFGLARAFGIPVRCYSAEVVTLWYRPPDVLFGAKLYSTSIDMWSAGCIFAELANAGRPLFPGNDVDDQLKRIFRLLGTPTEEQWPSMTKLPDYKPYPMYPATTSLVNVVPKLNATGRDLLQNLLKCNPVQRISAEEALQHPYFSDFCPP

[2] = molecular target: T3, 28 CDKs family protein kinases; assay: as above; type: biochemical; set-up: purchased ProQinase GmbH; host or cells: Sf9 insect cells or E. coli; conditions: CDK5/p35NCK; read-out: CDK7 selectivity profile in CDKs family, IC50
Procedure: as §3
Target sequence in this assay (Q00535 whole entry, the tested form may be a part): as above
Target sequence in this assay (Q15078 whole entry partner, the tested form may be a part): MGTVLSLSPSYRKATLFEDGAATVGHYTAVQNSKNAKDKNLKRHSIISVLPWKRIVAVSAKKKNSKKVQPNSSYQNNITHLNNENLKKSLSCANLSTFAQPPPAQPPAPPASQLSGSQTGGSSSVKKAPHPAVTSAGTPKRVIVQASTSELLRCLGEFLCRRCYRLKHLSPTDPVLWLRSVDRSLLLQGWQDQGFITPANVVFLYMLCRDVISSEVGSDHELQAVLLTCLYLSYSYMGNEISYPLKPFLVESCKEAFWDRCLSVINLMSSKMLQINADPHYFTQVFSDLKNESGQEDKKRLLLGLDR

T1 sequence (P06493 whole entry): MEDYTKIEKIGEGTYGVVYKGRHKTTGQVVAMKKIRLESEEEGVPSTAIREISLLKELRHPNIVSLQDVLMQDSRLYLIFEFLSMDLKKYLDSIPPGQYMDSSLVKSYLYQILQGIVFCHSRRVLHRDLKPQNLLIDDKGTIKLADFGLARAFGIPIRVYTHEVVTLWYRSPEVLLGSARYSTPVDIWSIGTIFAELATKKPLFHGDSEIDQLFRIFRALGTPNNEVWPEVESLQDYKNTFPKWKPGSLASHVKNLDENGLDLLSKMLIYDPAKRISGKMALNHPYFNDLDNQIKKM
T1 sequence (P14635 whole entry partner): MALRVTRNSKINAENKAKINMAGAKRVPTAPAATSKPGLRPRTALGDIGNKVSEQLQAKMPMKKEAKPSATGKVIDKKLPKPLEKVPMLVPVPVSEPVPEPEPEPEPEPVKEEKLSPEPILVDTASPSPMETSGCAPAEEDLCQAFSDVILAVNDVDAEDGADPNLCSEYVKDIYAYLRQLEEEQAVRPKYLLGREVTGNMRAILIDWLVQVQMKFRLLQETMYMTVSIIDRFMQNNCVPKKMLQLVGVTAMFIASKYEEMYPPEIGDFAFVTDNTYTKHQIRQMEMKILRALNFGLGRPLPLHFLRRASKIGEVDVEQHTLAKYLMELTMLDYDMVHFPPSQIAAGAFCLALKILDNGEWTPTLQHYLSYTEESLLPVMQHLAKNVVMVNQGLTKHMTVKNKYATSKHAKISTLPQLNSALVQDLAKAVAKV

SMILES: CC(C)c1cnn2c(NCc3ccccc3-c3nccc4cc(NC(=O)/C=C/CN(C)C)ccc34)nc(N3CCC(N)CC3)nc12 [Compound 11]
- IC50 (CDK1/Cyclin B): > 1000 nM
- IC50 (CDK7/Cyclin H/MNAT1; ATP at Km): < 100 nM
- CDK1/CDK7: Selectivity of CDK7 inhibition over CDK1 inhibition (CDK7/Cyclin H/MNAT1; CDK7 over CDK1): A (A indicates [fold] > 500)
- CDK2/CDK7: Selectivity of CDK7 inhibition over CDK2 inhibition (CDK7/Cyclin H/MNAT1; CDK7 over CDK2): A (A indicates [fold] > 500)
- CDK5/CDK7: Selectivity of CDK7 inhibition over CDK5 inhibition (CDK7/Cyclin H/MNAT1; CDK7 over CDK5): A (A indicates [fold] > 500)
- IC50 (H460): < 1000 nM
- IC50 (A2780): < 1000 nM
- IC50 (OVCAR-3): < 1000 nM
- IC50 [1]: > 10000 nM
- IC50 [2]: 7860 nM
